Results taken from patent US20240376094A2, “SELECTIVE BCL-XL PROTAC COMPOUNDS AND METHODS OF USE” (Les Laboratoires Servier, priority 2021, published 2024).

Experiments:
endogenous BCL-xL = molecular target: T1, endogenous BCL-xL (Homo sapiens, UniProt Q07817); assay: Degradation of endogenous BCL-xL in COR-L105 (ProteinSimple Jess); format: cell-based; conditions: COR-L105, 24 h, COR-L105, dose 300 nM, read-out: % BCL-xL vs. Untreated, COR-L105
T1 construct: endogenous in cells; host or cells: COR-L105 (ECACC No. 92031918); NCI-H1650 (ATCC No. CRL-5883)
Outline: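 COR-L105 cells (2,000,000/well) treated 24 h at 37 °C with compound at 100–300 nM final, singlet, alongside untreated cells. RIPA lysates normalized by BCA to 1.5 mg/mL, then BCL-xL detected by capillary immunoassay (2–40 kDa Jess) comparing treated with untreated lysates.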

Bcl-xL = molecular target: T2, Bcl-xL (Homo sapiens, UniProt Q07817); assay: HCT116 Bcl-xL degradation, capillary-based immunoassay (WES); format: cell-based
T2 construct: Measured levels of Bcl-xL protein of HCT116 cells treated with the tested compounds; host or cells: HCT116
Outline: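 HCT116 cells treated 24 h with compound at 10/100 nM and/or 9-point dilution (quadruplicates), then lysed. Bcl-xL measured by capillary WES immunoassay, normalized to cofilin and expressed as % of untreated cells. DC50 from four-parameter curve fit.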

T2 sequence (Q07817 whole entry): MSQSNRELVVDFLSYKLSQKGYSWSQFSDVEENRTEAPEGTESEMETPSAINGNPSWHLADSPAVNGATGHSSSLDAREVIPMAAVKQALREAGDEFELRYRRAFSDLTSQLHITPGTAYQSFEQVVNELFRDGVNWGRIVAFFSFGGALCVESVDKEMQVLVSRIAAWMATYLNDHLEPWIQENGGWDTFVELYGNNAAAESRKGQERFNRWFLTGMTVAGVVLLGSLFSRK
T1 sequence (Q07817 whole entry): as above

| SMILES | remaining activity at 0.3 µM (endogenous BCL-xL) [%] | DC50 (Bcl-xL; HCT116, 24 h, 9-point serial dilution) [nM] | remaining activity at 0.01 µM (Bcl-xL; HCT-116, HCT116, 10 nM, 24 h, % of untreated cells) [%] | remaining activity at 0.1 µM (Bcl-xL; HCT-116, HCT116, 100 nM, 24 h, % of untreated cells) [%] |
| --- | --- | --- | --- | --- |
| Cc1ncsc1-c1ccc(CNC(=O)[C@@H]2CC(O)CN2C(=O)C(NC(=O)CCCCCCC(=O)N2CCN(CCOC34CC5(C)CC(C)(CC(Cn6ncc(-c7ccc(N8CCCc9c8nnc(Nc8nc%10ccccc%10s8)c9C)nc7C(=O)O)c6C)(C5)C3)C4)CC2)C(C)(C)C)cc1 (stereo in doubt) [Example 24, 6-[3-(1,3-benzothiazol-2-ylamino)-4-methyl-6,7-dihydro-5H-pyrido[2,3-c]pyridazin-8-yl]-3-[1-[[3-[2-[4-[8-[[(1S)-1-[(2S,4R)-4-hydroxy-2-[[4-(4-methylthiazol-5-yl)phenyl]methylcarbamoyl]pyrrolidine-1-carbonyl]-2,2-dimethyl-propyl]amino]-8-oxo-octanoyl]piperazin-1-yl]ethoxy]-5,7-dimethyl-1-adamantyl]methyl]-5-methyl-pyrazol-4-yl]pyridine-2-carboxylic acid] | 40 | > 316 | 75 | 44 |
| Cc1ncsc1-c1ccc([C@H](C)NC(=O)[C@@H]2C[C@@H](O)CN2C(=O)[C@@H](NC(=O)CCCCCCCCCCC(=O)N2CCN(CC#Cc3ccc(OCCCc4sc(N5CCCc6c5nnc(Nc5nc7ccccc7s5)c6C)nc4C(=O)O)c(F)c3)CC2)C(C)(C)C)cc1 [Example 46, 2-(3-(benzo[d]thiazol-2-ylamino)-4-methyl-6,7-dihydropyrido [2,3-c]pyridazin-8(5H)-yl)-5-(3-(2-fluoro-4-(3-(4-(12-(((S)-1-((2S,4R)-4-hydroxy-2-(((S)-1-(4-(4-methylthiazol-5-yl)phenyl)ethyl)carbamoyl)pyrrolidin-1-yl)-3,3-dimethyl-1-oxobutan-2-yl)amino)-12-oxododecanoyl)piperazin-1-yl)prop-1-yn-1-yl)phenoxy)propyl)thiazole-4-carboxylic acid] | 22.6 |  |  |  |
| Cc1ncsc1-c1ccc([C@H](C)NC(=O)[C@@H]2C[C@@H](O)CN2C(=O)[C@@H](NC(=O)CCCCCCCCCCC(=O)N2CCN(CCOC34CC5(C)CC(C)(CC(Cn6ncc(-c7ccc(N8CCCc9c8nnc(Nc8nc%10ccccc%10s8)c9C)nc7C(=O)O)c6C)(C5)C3)C4)CC2)C(C)(C)C)cc1 [Example 47, 6-(3-(benzo[d]thiazol-2-ylamino)-4-methyl-6,7-dihydropyrido [2,3-c]pyridazin-8(5H)-yl)-3-(1-(((1r,3s,5R,7S)-3-(2-(4-(12-(((S)-1-((2S,4R)-4-hydroxy-2-(((S)-1-(4-(4-methylthiazol-5-yl)phenyl)ethyl)carbamoyl)pyrrolidin-1-yl)-3,3-dimethyl-1-oxobutan-2-yl)amino)-12-oxododecanoyl)piperazin-1-yl)ethoxy)-5,7-dimethyladamantan-1-yl)methyl)-5-methyl-1H-pyrazol-4-yl)picolinic acid] | 22.3 |  |  |  |
| Cc1ncsc1-c1ccc([C@H](C)NC(=O)[C@@H]2C[C@@H](O)CN2C(=O)[C@@H](NC(=O)CCCCCCCCCCCN2CCN(CC#Cc3ccc(OCCCc4sc(N5CCCc6c5nnc(Nc5nc7ccccc7s5)c6C)nc4C(=O)O)c(F)c3)CC2)C(C)(C)C)cc1 [Example 51, 2-(3-(benzo[d]thiazol-2-ylamino)-4-methyl-6,7-dihydropyrido [2,3-c]pyridazin-8(5H)-yl)-5-(3-(2-fluoro-4-(3-(4-(12-(((S)-1-((2S,4R)-4-hydroxy-2-(((S)-1-(4-(4-methylthiazol-5-yl)phenyl)ethyl)carbamoyl)pyrrolidin-1-yl)-3,3-dimethyl-1-oxobutan-2-yl)amino)-12-oxododecyl)piperazin-1-yl)prop-1-yn-1-yl)phenoxy)propyl)thiazole-4-carboxylic acid] | 12.1 |  |  |  |
